Experimental data as given in ChEMBL document CHEMBL1201862, “PubChem BioAssay data set” (2004).
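Tested at 5 concentrations; 48 h exposure; 96-well plates; endpoints linearly interpolated, else capped at highest concentration. GI50 marks 50% less growth.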 Activity calls are given as the source filed them. Rule as the data show it: active = GI50 up to about 1.1 µM and inactive = higher.

Assays:
Test in all cases: growth of human tumour cells (NCI), 48 h
SF-268 = system: SF-268
UACC-62 = system: UACC-62
HL-60 = system: HL-60
NCI-H23 = system: NCI-H23
UO-31 = system: UO-31
A549 = system: A549
SK-MEL-5 = system: SK-MEL-5
KM12 = system: KM12
NCI-H460 = system: NCI-H460
M14 = system: M14
RPMI-8226 = system: RPMI-8226
RXF 393 = system: RXF 393
EKVX = system: EKVX
HOP-62 = system: HOP-62
COLO 205 = system: COLO 205
A498 = system: A498
HCC 2998 = system: HCC 2998

Measured: GI50

CC(Oc1ccc(OCC2CCCCC2)cc1)C(=O)O (centres undefined)
inactive: SF-268 > 100 µM | UACC-62 > 100 µM | HL-60 > 100 µM | NCI-H23 > 100 µM | UO-31 > 100 µM | A549 > 100 µM | SK-MEL-5 > 100 µM | KM12 > 100 µM | NCI-H460 > 100 µM | M14 > 100 µM

Cc1cc(C)nc(NS(=O)(=O)c2ccc(Nc3c4ccccc4nc4c(C(=O)Nc5ccc(S(N)(=O)=O)cc5)cccc34)cc2)n1
inactive: RPMI-8226 > 100 µM | SF-268 50.9 µM | UACC-62 66.1 µM | NCI-H23 68.5 µM | UO-31 37 µM | A549 > 100 µM | RXF 393 38 µM | EKVX 35.1 µM | SK-MEL-5 > 100 µM | KM12 63.7 µM | NCI-H460 88.1 µM | M14 71.6 µM | HOP-62 > 100 µM | COLO 205 > 100 µM | A498 43.3 µM

Cc1ccccc1NC(=O)C(=O)C(C(=O)c1ccccc1F)C1OC(=O)c2ccccc21 (centres undefined)
inactive: RPMI-8226 11.9 µM | SF-268 18.9 µM | HL-60 16.3 µM | NCI-H23 10.3 µM | UO-31 15.8 µM | A549 42.2 µM | RXF 393 8.53 µM | EKVX 96.6 µM | SK-MEL-5 22.4 µM | KM12 23 µM | NCI-H460 32.9 µM | HCC 2998 11.5 µM | M14 16.6 µM | HOP-62 17.3 µM | COLO 205 21.3 µM | A498 45.8 µM

c1ccc(C(c2ccccc2)c2ccncc2)cc1
inactive: RPMI-8226 > 100 µM | SF-268 > 100 µM | UACC-62 > 100 µM | NCI-H23 > 100 µM | UO-31 69.5 µM | A549 > 100 µM | EKVX > 100 µM | SK-MEL-5 > 100 µM | KM12 > 100 µM | NCI-H460 > 100 µM | HCC 2998 61.7 µM | M14 > 100 µM | HOP-62 > 100 µM | COLO 205 > 100 µM | A498 > 100 µM

CC(O)C(NC(=O)c1ccccc1)C(=O)N(Cc1ccccc1)Cc1ccccc1 (centres undefined)
inactive: RPMI-8226 28.9 µM | SF-268 > 100 µM | UACC-62 > 100 µM | HL-60 18.9 µM | NCI-H23 > 100 µM | UO-31 > 100 µM | A549 80.9 µM | EKVX > 100 µM | SK-MEL-5 60 µM | KM12 > 100 µM | NCI-H460 > 100 µM | HCC 2998 > 100 µM | M14 > 100 µM | HOP-62 > 100 µM | COLO 205 > 100 µM | A498 69.3 µM

CC(C)(C)c1ccc(OCCOCCOc2ccc(C(C)(C)C)cc2S(=O)(=O)Nc2ccc([N+](=O)[O-])cc2)c(S(=O)(=O)Nc2ccc([N+](=O)[O-])cc2)c1
inactive: SF-268 8.45 µM | UACC-62 6.21 µM | HL-60 5.58 µM | NCI-H23 12.7 µM | UO-31 4.45 µM | A549 4.42 µM | RXF 393 19.2 µM | EKVX 62.5 µM | SK-MEL-5 6.17 µM | KM12 7.53 µM | NCI-H460 8.85 µM | HCC 2998 8.73 µM | M14 8.28 µM | HOP-62 81.7 µM | COLO 205 21.8 µM | A498 8.15 µM

COc1cc(/C=C/c2ccncc2)cc(OC)c1OC
inactive: RPMI-8226 52.4 µM | SF-268 > 100 µM | UACC-62 67.1 µM | HL-60 24.6 µM | NCI-H23 > 100 µM | UO-31 24.4 µM | A549 > 100 µM | RXF 393 26.4 µM | EKVX 13.1 µM | SK-MEL-5 63.2 µM | KM12 > 100 µM | NCI-H460 > 100 µM | M14 > 100 µM | HOP-62 53.6 µM | COLO 205 > 100 µM | A498 30.5 µM
